{
  "source": "patent US20200239587A1",
  "about": "“SENSITIZATION OF TUMORS TO THERAPIES THROUGH ENDOGLIN ANTAGONISM” (Cedars-Sinai Medical Center, priority 2016, published 2020)",
  "key": {"[1]": {"test_system": "CD105 cell surface expression in human CW22Rv1 epithelia and mouse prostatic fibroblasts", "assay": "3D co-culture, CD105 cell surface expression by FACS", "type": "cell-based", "details": "enzalutamide vs vehicle; epithelial and fibroblastic populations", "protocol": "After 72 hours, the cells were dissociated and assessed by FACS for CD105 expression as shown.\nA modified version of the 3D organotypic co-culture system was performed in a collagen matrix similar to that previously reported (Stark et al., 1999, J Invest Dermatol 112, 681-691). Collagen matrix gels were prepared by mixing five volumes of rat tail collagen I with two volumes of matrigel (NCI), one volume of 10× DMEM medium (GE Healthcare Life Sciences), and one volume of FBS (Atlanta Biologicals), Rv1 and primary mouse prostatic fibroblasts were combined in a 1:3 ratio. Nylon squares were coated with collagen and placed on metal grids in a 6-well plate. Gel plugs (150 μl) were transferred onto the nylon squares and media was added to the level of the nylon mesh. After 72 hours, the cells were dissociated from the matrix with collagenase and dispersed for FACS analysis.\nFACS experiments were performed with eBiosciences antibodies: anti-human Stro-1-FITC (340105), anti-human CD90-PE (12-0909-42), anti-human CD105-APC (17-1057-41), anti-mouse CD105-APC (17-1051-82), anti-human CD117-PE-Cy7 (15-1178-41), anti-human Ki67-PECy7 (25-5699-41), and anti-human EpCAM-PE (12-9326-41). All events were acquired on a BD LSRII flow cytometer in the Cedars-Sinai Medical Center FACS core installed with BD FACSDiva software. Files were analyzed using FlowJo software v10.2. […]"}, "[2]": {"test_system": "PCa patient-derived xenograft (PDX)", "assay": "PCa patient-derived xenograft (PDX), immune-localization of CD105 and SFRP1", "type": "in vivo, mice", "source_text": "See also FIG. 15. […] Scale bar represents 100 μm. […] See also FIG. 16."}, "[3]": {"test_system": "Rv1", "assay": "MTT proliferation assay", "type": "cell-based, human", "details": "enzalutamide alone, absence of fibroblastic cells; p<0.0001", "protocol": "(§1) CW22Rv1, C42B, and PC3 cells from ATCC were expanded as directed. Prostatectomy specimens from Cedars-Sinai Medical Center or the Greater Los Angeles Veterans Affairs were cultured to generate NAF and CAF cells using the same method, as C57BL/6 mouse wild-type prostatic fibroblasts were grown as previously reported (Franco et al., 2011, Cancer research 71, 1272-1281; Kiskowski et al., 2011, Cancer research 68, 4709-4718). TRC105 and M1043 were provided by TRACON Pharmaceuticals, Inc. (San Diego, Calif.). Enzalutamide (Xtandi) was purchased from Medivation (San Francisco, Calif.).\n(§2) 3000 cells per 96-well were treated for 72 hours using 5 wells per treatment. MTT reagent (M6494, Life Technologies) was prepared as directed, incubated for one hour at 37° C., and analyzed using manufacturer's recommendations."}, "[4]": {"test_system": "C42B", "assay": "MTT proliferation assay", "type": "cell-based, human", "details": "enzalutamide alone, absence of fibroblastic cells; p<0.0001", "protocol": "as §1, §2"}, "[5]": {"test_system": "PC3 cells", "assay": "MTT proliferation assay", "type": "cell-based, human", "details": "enzalutamide, absence of TRC105; no androgen receptor expression", "protocol": "as §1, §2"}, "[6]": {"test_system": "tissue recombination orthotopic xenografts of primary human CAF and Rv1", "assay": "Tissue recombination orthotopic xenografts of primary human CAF and Rv1", "details": "castrated mice given enzalutamide vs control intact mice", "text": "FIG. 13A) Mice were orthotopically grafted with tissue recombinants of CW22Rv1 and CAF. […] FIG. 13B) H&E staining was followed by immune-localization for phosphorylated-histoneH3 (PH-H3), TUNEL, and chromogranin A (ChromA). Scale bar represents 32 μm. The mitotic (PH-H3) and cell death (TUNEL) indexes were plotted. n>5, error bars are mean+/−SD and *p<0.05, **p<0.01, ***p<0.001, compared to control unless otherwise indicated.\nMale beige/SCID mice (Envigo), 6-8 or 10-12 weeks old, were used for subrenal capsule or prostatic orthotopic grafting, respectively, as previously described (Banerjee et al., 2014, Oncogene 33, 4924-4931; Hayward et al., 2001, Cancer Res 61, 8135-8142). In accordance with institutional animal care and use committee approval, 2×10^5 CW22Rv1 cells and 6×10^5 stromal cells were suspended in 20 μL type I collagen to be grafted into the subrenal capsule of mice castrated after seven days and sacrificed 21 days after castration. […] Tumor volume was calculated using the modified ellipsoid formula volume3=π/6×(width)2×length.\nParaffin embedded tissues were sectioned (5 μm thick) were subjected to hematoxylin and eosin (H&E) staining and immunohistochemistry as previously reported (Placencio et al., 2008, Cancer research 68, 4709-4718). […] Anti-phosphorylated histone H3 (06-570, Millipore), anti-CD105 (NCL-CD105, Leica Microsystems), anti-Ki67 (ab16667, Abcam), and anti-chromogranin A (sc-13090, Santa Cruz Biotechnology), anti-SFRP1 (601-401-475S, Rockland Immunochemicals), and anti-survivin (2808, Cell Signaling) antibodies were incubated at 4° C. overnight. Secondary antibody development was performed with Dako Cytomation mouse or rabbit kits and visualized using 3,3′-diaminobenzidine tetrahydrochloride substrate. TUNEL staining was performed per manufacturer's protocol (S7100, Millipore). Slides were scanned with a Leica Biosystems Aperio AT. Up to five fields per tissue were quantitated with Fiji (ImageJ) using a custom written macro. Mitotic and death index were quantitated by taking the total number of positively-stained nuclei divided by the total number of nuclei."}, "[7]": {"test_system": "22Rv1 cells", "assay": "Cell counts with oligomycin and irradiation", "type": "cell-based, human", "details": "irrespective of dose of oligomycin, 72 hrs; p<0.01", "protocol": "22Rv1 cells were treated with indicated doses of ATPase inhibitor, oligomycin and exposed to 4Gy irradiation. Within each group, the left column is 0 Gy and the right column is 4 Gy. Cell counts were performed 72 hrs. following irradiation. (**p<0.01, ***p<0.001)"}, "[8]": {"test_system": "p53 in 22Rv1 cells", "assay": "p53 status after irradiation", "type": "cell-based, human", "protocol": "In search for an alternate process mediating TRC105 radiation sensitization the inventors examined changes in cell cycle. The impact of radiation on the cell cycle is well described, as causing a G2 cell cycle arrest that undergoes cell cycle redistribution. […] As SIRT1 has previously been reported to regulate p53 stability by de-acetylating p53, the inventors investigated p53 status with TRC105 treatment. 22Rv1 cells were treated with either TRC105 or 200 μM nicotinamide, an inhibitor of SIRT1 activity, prior to irradiation (4Gy). Cells were then collected at 0, 1, and 7 days post radiation to elucidate early and late p53 response. […] While loss-of-function p53 mutations are rare in prostate cancer, 90% of pancreatic cancers have p53 mutations. We therefore used two p53 mutant pancreatic cancer cell lines: HPAF-II and MIAPACA-2 to identify if TRC105 unresponsiveness to radiation was due to p53 loss of functionality."}, "[9]": {"test_system": "22Rv1 cells", "assay": "Total cellular ATP", "type": "cell-based, human", "details": "with or without 4 Gy, 0-168 hours", "protocol": "Cells were analyzed for mito-stress test by Seahorse-XF 168 hours following 4 Gy of radiation in the presence of IgG or TRC105. FIG. 26A) Basal respiration, non-mito respiration, proton leak, spare respiratory capacity, FIG. 26B) extracellular acidification rate (ECAR) and FIG. 26C) mitochondrial dependent ATP production were quantitated using Wave 2.3.0 analysis. Data are reported as mean+/−S.D. of a representative experiment (n=5) of 3 independent experiments. FIGS. 26A-26C, the first/left column depicts 0Gy+IgG, the second column depicts 0Gy+TRC105, the third column depicts 4Gy+IgG and the last/right column depicts 4Gy+TRC105. FIG. 26D) 22Rv1 cells treated with IgG, TRC105 or nicotinamide were irradiated (4 Gy). Total cellular ATP was measured 0, 24, 72, 120, and 168 hours post radiation. Within each group, the left column is IgG, middle column is TRC105 and the right column is nicotinamide. Data are reported as mean+/−S.D. of 3 independent experiments. (***p<0.001, ****p<0.0001)."}, "[10]": {"test_system": "SIRT1 protein expression in 22Rv1", "assay": "Western blot for SIRT1 after BMP treatment", "type": "cell-based, human", "details": "serum-starved, 50 ng/ml BMP4 for 4 hours", "protocol": "FIG. 20A) Western blot for SIRT1 expression measured in 22Rv1 cells following serum starvation and treatment with 50 ng/ml BMP4 for 4 hours. Phosphorylated Smad1/5 and β-actin was measured concurrently. FIG. 20B) SIRT1 mRNA expression was measured in CW22Rv1 under serum free conditions with 50 ng/ml BMP4, IgG in the context of increasing doses of TRC105 (0.05, 0.1, 0.5, 1, 5, or 10 μg/ml). SIRT1 mRNA expression was normalized to GAPDH and to serum treated control. FIG. 20C) Fold Change of SIRT1 mRNA in benign prostate and prostate cancer patients, obtained from R2-Genomics analysis is expressed (n=95). FIG. 20D) Immunohistochemical localization for SIRT1 expression in benign and prostate cancer tissues is indicated by arrows (Human Protein Atlas). The “e” and “s” indicate epithelia and stromal compartments in the tissues, respectively. FIG. 20E) SIRT1 mRNA expression was measured 72 hours following irradiation of 22Rv1 in a dose range of 0-6 Gy. FIG. 20F) SIRT1 mRNA expression was measured in a time course 0-72 hours following 4 Gy irradiation. SIRT1 mRNA expression was normalized to GAPDH and to untreated, 0 Gy. Data are reported as a mean+/−S.D. of 3 independent experiments (***p<0.001, ****p<0.0001)."}, "[11]": {"test_system": "Rv1 cells", "assay": "Neuroendocrine gene panel in Rv1 treated with recombinant SFRP1", "type": "cell-based, human", "details": "0, 0.01, 0.1, 1 μg/ml SFRP1; p<0.002", "source_text": "See also FIG. 15. […] Immunohistochemical localization of CD105 and SFRP1 in benign or PCa tissues are found in blood vessels (v), epithelia (e), and stroma (s), n=4. Scale bar represents 100 μm. FIG. 12E) Epithelial proliferation of human CW22Rv1, in 3D co-cultures with mouse prostatic fibroblasts, were co-stained for EpCam and Ki67 for FACS analysis. […] See also FIG. 16. […] Error bars are mean+/−SD and **p<0.01, ****p<0.0001, compared to control unless otherwise indicated.\nTotal RNA was extracted using the RNeasy kit (Qiagen). 1 μg RNA was used for cDNA synthesis using iSCRIPT cDNA synthesis kit (1708891, Bio-Rad). Quantitative RT-PCR was performed with 5 replicates using the Step One Real-Time PCR system (Applied Biosystems). Gene mRNA expression was normalized to GAPDH. Primer sequences can be found in the Table 1. For RNA-sequencing, Ion Proton AmpliSeq Transcriptome RNA Sequencing was performed achieving an average of 3M reads. We mapped an average of 88% of the reads to the human genome with Torrent Suite version 4.4.2."}, "[12]": {"test_system": "Rv1 cells", "assay": "Rv1 proliferation with recombinant SFRP1", "type": "cell-based, human", "details": "same doses of SFRP1, 72 hours", "source_text": "Associations between copy number (CN), gene expression (GE), and methylation (Me) are denoted by lines from one node to another (p<0.01)."}},
  "note": "Entries after “also recorded” stand apart in the source; their conditions may differ.",
  "data": [
    {"molecule": "CNC(=O)c1ccc(N2C(=S)N(c3ccc(C#N)c(C(F)(F)F)c3)C(=O)C2(C)C)cc1F", "note": "[enzalutamide, reference compound]", "values": [
      {"measurement": "CD105 cell surface expression", "setting": "[1]", "result": "three-fold increase"},
      {"measurement": "SFRP1 expression in PDX", "setting": "[2]; enzalutamide treatment", "result": "upregulated"},
      {"measurement": "CD105 expression in PDX tissues", "setting": "[2]; following 4 days of enzalutamide administration", "result": "elevated in both epithelial and CAF populations"},
      {"measurement": "cell proliferation (MTT)", "setting": "[3]", "result": "significantly reduced cell proliferation; also recorded: sensitive to enzalutamide treatment"},
      {"measurement": "cell proliferation (MTT)", "setting": "[4]", "result": "significantly reduced cell proliferation"},
      {"measurement": "viability (MTT)", "setting": "[5]", "result": "insensitive"},
      {"measurement": "cell turnover by phosphorylated-histone H3 and TUNEL", "setting": "[6]", "result": "statistically comparable to control intact mice"},
      {"measurement": "tumor volume", "setting": "[6]", "result": "statistically comparable to control intact mice; also recorded: did not significantly decrease tumor growth"}
    ]},
    {"molecule": "CC[C@H]1/C=C/C=C/C[C@@H](C)[C@H](O)[C@@](C)(O)C(=O)[C@@H](C)[C@H](O)[C@@H](C)C(=O)[C@@H](C)[C@H](O)[C@@H](C)/C=C/C(=O)O[C@@H]2[C@H](C)[C@H](CC1)O[C@]1(CC[C@H](C)[C@H](C[C@@H](C)O)O1)[C@H]2C", "note": "[oligomycin]", "values": [
      {"measurement": "cell proliferation by cell counting", "setting": "[7]", "result": "significantly reduced cell proliferation"}
    ]},
    {"molecule": "NC(=O)c1cccnc1", "note": "[nicotinamide, reference compound]", "values": [
      {"measurement": "acetylated and total-p53", "setting": "[8]; by 7 days post radiation", "result": "markedly increased"},
      {"measurement": "anti-apoptotic protein Bc1-2", "setting": "[8]; prior to 4Gy irradiation", "result": "decrease in the anti-apoptotic protein Bc1-2"},
      {"measurement": "p21", "setting": "[8]; prior to 4Gy irradiation", "result": "increase in p21"},
      {"measurement": "acetylated p53", "setting": "[8]; treatment prior to 4Gy, nicotinamide 200 μM", "result": "increase in acetylated p53"},
      {"measurement": "cellular ATP stores", "setting": "[9]", "result": "depleted regardless of radiation treatment"}
    ]},
    {"molecule": "BMP: bone morphogenic protein (BMP4, 50 ng/ml) used to stimulate 22Rv1 cells (protein, UniProt P12644 293-408, looked up) Bone morphogenetic protein 4: SPKHHSQRARKKNKNCRRHSLYVDFSDVGWNDWIVAPPGYQAFYCHGDCPFPLADHLNSTNHAIVQTLVNSVNSSIPKACCVPTELSAISMLYLDEYDKVVLKNYQEMVVEGCGCR", "values": [
      {"measurement": "SIRT1 protein expression", "setting": "[10]", "result": "induced SIRT1 protein expression"}
    ]},
    {"molecule": "SFRP1: human recombinant SFRP1 (Secreted Frizzled Related Protein 1) (protein, UniProt Q8N474 32-314, looked up) Secreted frizzled-related …: SEYDYVSFQSDIGPYQSGRFYTKPPQCVDIPADLRLCHNVGYKKMVLPNLLEHETMAEVKQQASSWVPLLNKNCHAGTQVFLCSLFAPVCLDRPIYPCRWLCEAVRDSCEPVMQFFGFYWPEMLKCDKFPEGDVCIAMTPPNATEASKPQGTTVCPPCDNELKSEAIIEHLCASEFALRMKIKEVKKENGDKKIVPKKKKPLKLGPIKKKDLKKLVLYLKNGADCPCHQLDNLSHHFLIMGRKVKSQYLLTAIHKWDKKNKEFKNFMKKMKNHECPTFQSVFK", "values": [
      {"measurement": "expression of panel of 9 PCa NED genes", "setting": "[11]", "result": "significant induction of a panel of 9 PCa NED genes in a dose dependent manner"},
      {"measurement": "epithelial proliferation", "setting": "[12]", "result": "no effect"}
    ]}
  ]
}
